Consider eleven compounds from patent US8901118B2, “Compounds and methods for kinase modulation, and indications therefor” (Plexxikon Inc., priority 2010, dated 2014).

Data set [1] can be described thus: Relative solubility by turbidity in aqueous buffers (pH 1.5, 4.5, 6.8, 7.4). To be noted: for turbidity threshold (L, M, H) 1.4: pH 1.5 (SGF); for turbidity threshold (L, M, H) 4.5: pH 4.5 (SIF); for turbidity threshold (L, M, H) 6.8: pH 6.8 (SIF); for turbidity threshold (L, M, H) 7.4: pH 7.4 (HEPES). The data set is classed as physicochemical. The procedure, abridged: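 Reported value: concentration at which optical density at 490, 535 and 650 nm passes 0.01, taken as the mean of the three wavelengths. Buffers were 0.5M NaCl pH 1.5, 0.05M NaH2PO4 pH 4.5 or 6.8, and 10 mM HEPES/150 mM NaCl pH 7.4, each receiving serial 1:1 DMSO dilutions of a 25 mM stock.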

In the next data set the target is CYP3A4(BFC) (Homo sapiens, UniProt P08684). The data set is described as follows: CYP3A4(BFC) inhibition. Conditions: CYP3A4, substrate BFC; read-out: Cyp IC50 3A4(BFC). The data set is classed as in vitro ADME. Summed up: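 This fluorescence assay tracks how test compounds reduce CYP3A4 turnover of BFC, with enzyme and substrate from BD Biosciences. A 10-point 1:1 dilution series in cofactor mix (1.3% NADPH Regeneration Solution A, 1.04% Solution B, 5% acetonitrile, 0.05% DMSO) was dispensed at 10 μL into 384 well plates, preincubated 10 minutes at 37° C, then incubated 30 min and read on a Tecan Safire 2.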
Sequence of CYP3A4(BFC) (P08684 whole entry): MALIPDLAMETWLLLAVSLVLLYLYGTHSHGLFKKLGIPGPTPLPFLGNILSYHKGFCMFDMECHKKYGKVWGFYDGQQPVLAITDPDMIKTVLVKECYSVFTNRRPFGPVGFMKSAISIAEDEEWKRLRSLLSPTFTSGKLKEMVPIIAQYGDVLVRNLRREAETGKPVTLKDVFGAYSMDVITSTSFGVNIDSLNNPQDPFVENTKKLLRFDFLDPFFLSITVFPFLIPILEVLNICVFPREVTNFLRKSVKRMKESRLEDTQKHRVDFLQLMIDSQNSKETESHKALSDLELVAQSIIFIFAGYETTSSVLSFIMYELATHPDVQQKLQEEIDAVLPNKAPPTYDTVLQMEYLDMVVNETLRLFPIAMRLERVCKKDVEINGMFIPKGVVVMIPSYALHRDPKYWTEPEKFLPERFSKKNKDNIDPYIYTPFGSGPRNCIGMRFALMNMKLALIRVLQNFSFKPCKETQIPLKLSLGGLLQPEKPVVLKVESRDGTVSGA

Some results are limits rather than exact numbers.

As to `COc1ccc(Nc2ccc(C(=O)c3c[nH]c4ncnc(NCC5CCCO5)c34)c(F)n2)cn1` (stereo not shown) [Compound P-4073, [2-fluoro-6-[(6-methoxy-3-pyridyl)amino]-3-pyridyl]-[4-(tetrahydrofuran-2-ylmethylamino)-7H-pyrrolo[2,3-d]pyrimidin-5-yl]methanone], in data set [1], the “turbidity threshold (L, M, H) 1.4” value is listed as “M (moderate solubility if the threshold concentration is 31.3 μM to 250 μM)”; the “turbidity threshold (L, M, H) 4.5” value is recorded as “L (low solubility if the threshold concentration is <31.3 μM)”; the “turbidity threshold (L, M, H) 6.8” value is listed as “L (low solubility if the threshold concentration is <31.3 μM)”; the “turbidity threshold (L, M, H) 7.4” value is reported as “L (low solubility if the threshold concentration is <31.3 μM)”. In addition, the IC50 on CYP3A4(BFC) is above 10 µM.
As for `CCc1ccc(Nc2ccc(C(=O)c3c[nH]c4ncnc(NC5CCC(F)(F)CC5)c34)c(F)n2)cn1` [Compound P-4096, [4-[(4,4-difluorocyclohexyl)amino]-7H-pyrrolo[2,3-d]pyrimidin-5-yl]-[6-[(6-ethyl-3-pyridyl)amino]-2-fluoro-3-pyridyl]methanone], in data set [1], the “turbidity threshold (L, M, H) 1.4” value is listed as “H (high solubility if the threshold concentration is >250 μm)”; the “turbidity threshold (L, M, H) 4.5” value is “L (low solubility if the threshold concentration is <31.3 μM)”; the “turbidity threshold (L, M, H) 6.8” value was “L (low solubility if the threshold concentration is <31.3 μM)”; the “turbidity threshold (L, M, H) 7.4” value is given as “L (low solubility if the threshold concentration is <31.3 μM)”. In addition, at CYP3A4(BFC), the IC50 was above 10 µM.
For the compound `CNc1ncnc2[nH]cc(C(=O)c3ccc(Nc4ccc(C)nc4)nc3F)c12` [Compound P-4115, [2-fluoro-6-[(6-methyl-3-pyridyl)amino]-3-pyridyl]-[4-(methylamino)-7H-pyrrolo[2,3-d]pyrimidin-5-yl]methanone], in data set [1], the “turbidity threshold (L, M, H) 1.4” value is “H (high solubility if the threshold concentration is >250 μm)”; the “turbidity threshold (L, M, H) 4.5” value is given as “M (moderate solubility if the threshold concentration is 31.3 μM to 250 μM)”; the “turbidity threshold (L, M, H) 6.8” value is recorded as “M (moderate solubility if the threshold concentration is 31.3 μM to 250 μM)”; the “turbidity threshold (L, M, H) 7.4” value is recorded as “M (moderate solubility if the threshold concentration is 31.3 μM to 250 μM)”. In addition, the IC50 at CYP3A4(BFC) is above 10 µM.
Regarding `CCc1ccc(Nc2ccc(C(=O)c3c[nH]c4ncnc(NCC5CC5)c34)c(F)n2)cn1` [Compound P-4118, [4-(cyclopropylmethylamino)-7H-pyrrolo[2,3-d]pyrimidin-5-yl]-[6-[(6-ethyl-3-pyridyl)amino]-2-fluoro-3-pyridyl]methanone], in data set [1], the “turbidity threshold (L, M, H) 1.4” value is given as “H (high solubility if the threshold concentration is >250 μm)”; the “turbidity threshold (L, M, H) 4.5” value is reported as “M (moderate solubility if the threshold concentration is 31.3 μM to 250 μM)”; the “turbidity threshold (L, M, H) 6.8” value is on record as “M (moderate solubility if the threshold concentration is 31.3 μM to 250 μM)”; the “turbidity threshold (L, M, H) 7.4” value is listed as “L (low solubility if the threshold concentration is <31.3 μM)”. Moreover, at CYP3A4(BFC), the IC50 was above 10 µM.
Consider `CCN1CCC(Nc2ncnc3[nH]cc(C(=O)c4ccc(Nc5ccc(OC)nc5)nc4F)c23)CC1` [Compound P-4074, [4-[(1-ethyl-4-piperidyl)amino]-7H-pyrrolo[2,3-d]pyrimidin-5-yl]-[2-fluoro-6-[(6-methoxy-3-pyridyl)amino]-3-pyridyl]methanone], for which, in data set [1], the “turbidity threshold (L, M, H) 1.4” value is recorded as “H (high solubility if the threshold concentration is >250 μm)”; the “turbidity threshold (L, M, H) 4.5” value is reported as “M (moderate solubility if the threshold concentration is 31.3 μM to 250 μM)”; the “turbidity threshold (L, M, H) 6.8” value is given as “M (moderate solubility if the threshold concentration is 31.3 μM to 250 μM)”; the “turbidity threshold (L, M, H) 7.4” value was “M (moderate solubility if the threshold concentration is 31.3 μM to 250 μM)”. Also, at CYP3A4(BFC), the IC50 was above 10 µM.
On to `CCc1ccc(Nc2ccc(C(=O)c3c[nH]c4ncnc(NCCCOC)c34)c(F)n2)cn1` [Compound P-4098, [6-[(6-ethyl-3-pyridyl)amino]-2-fluoro-3-pyridyl]-[4-(3-methoxypropylamino)-7H-pyrrolo[2,3-d]pyrimidin-5-yl]methanone], for which, in data set [1], the “turbidity threshold (L, M, H) 1.4” value was “H (high solubility if the threshold concentration is >250 μm)”; the “turbidity threshold (L, M, H) 4.5” value is given as “L (low solubility if the threshold concentration is <31.3 μM)”; the “turbidity threshold (L, M, H) 6.8” value was “M (moderate solubility if the threshold concentration is 31.3 μM to 250 μM)”; the “turbidity threshold (L, M, H) 7.4” value is “M (moderate solubility if the threshold concentration is 31.3 μM to 250 μM)”. On CYP3A4(BFC), the IC50 is above 10 µM.
Regarding `CCc1ccc(Nc2ccc(C(=O)c3c[nH]c4ncnc(NCCOC)c34)c(F)n2)cn1` [Compound P-4119, [6-[(6-ethyl-3-pyridyl)amino]-2-fluoro-3-pyridyl]-[4-(2-methoxyethylamino)-7H-pyrrolo[2,3-d]pyrimidin-5-yl]methanone], in data set [1], the “turbidity threshold (L, M, H) 1.4” value is listed as “H (high solubility if the threshold concentration is >250 μm)”; the “turbidity threshold (L, M, H) 4.5” value is reported as “M (moderate solubility if the threshold concentration is 31.3 μM to 250 μM)”; the “turbidity threshold (L, M, H) 6.8” value is “M (moderate solubility if the threshold concentration is 31.3 μM to 250 μM)”; the “turbidity threshold (L, M, H) 7.4” value is recorded as “L (low solubility if the threshold concentration is <31.3 μM)”. Moreover, on CYP3A4(BFC), the IC50 was above 10 µM.
With `CCNc1ncnc2[nH]cc(C(=O)c3ccc(Nc4ccc(C5CC5)nc4)nc3F)c12` [Compound P-4060, [6-[(6-cyclopropyl-3-pyridyl)amino]-2-fluoro-3-pyridyl]-[4-(ethylamino)-7H-pyrrolo[2,3-d]pyrimidin-5-yl]methanone], in data set [1], the “turbidity threshold (L, M, H) 1.4” value was “H (high solubility if the threshold concentration is >250 μm)”; the “turbidity threshold (L, M, H) 4.5” value is given as “M (moderate solubility if the threshold concentration is 31.3 μM to 250 μM)”; the “turbidity threshold (L, M, H) 6.8” value is on record as “M (moderate solubility if the threshold concentration is 31.3 μM to 250 μM)”; the “turbidity threshold (L, M, H) 7.4” value is “M (moderate solubility if the threshold concentration is 31.3 μM to 250 μM)”. In addition, the IC50 on CYP3A4(BFC) was above 10 µM.
Take `CCCNc1ncnc2[nH]cc(C(=O)c3ccc(Nc4ccc(C)nc4)nc3F)c12` [Compound P-4114, [2-fluoro-6-[(6-methyl-3-pyridyl)amino]-3-pyridyl]-[4-(propylamino)-7H-pyrrolo[2,3-d]pyrimidin-5-yl]methanone]: in data set [1], the “turbidity threshold (L, M, H) 1.4” value is given as “H (high solubility if the threshold concentration is >250 μm)”; the “turbidity threshold (L, M, H) 4.5” value is listed as “L (low solubility if the threshold concentration is <31.3 μM)”; the “turbidity threshold (L, M, H) 6.8” value is “L (low solubility if the threshold concentration is <31.3 μM)”; the “turbidity threshold (L, M, H) 7.4” value is “L (low solubility if the threshold concentration is <31.3 μM)”. Besides, on CYP3A4(BFC), the IC50 is above 10 µM.
Take `O=C(c1ccc(NC2CCC(F)(F)CC2)nc1F)c1c[nH]c2ncnc(NCC(F)(F)F)c12` [Compound P-4061, [6-[(4,4-difluorocyclohexyl)amino]-2-fluoro-3-pyridyl]-[4-(2,2,2-trifluoroethylamino)-7H-pyrrolo[2,3-d]pyrimidin-5-yl]methanone]: in data set [1], the “turbidity threshold (L, M, H) 1.4” value is on record as “M (moderate solubility if the threshold concentration is 31.3 μM to 250 μM)”; the “turbidity threshold (L, M, H) 4.5” value is “L (low solubility if the threshold concentration is <31.3 μM)”; the “turbidity threshold (L, M, H) 6.8” value is given as “M (moderate solubility if the threshold concentration is 31.3 μM to 250 μM)”; the “turbidity threshold (L, M, H) 7.4” value is “M (moderate solubility if the threshold concentration is 31.3 μM to 250 μM)”. Also, the IC50 at CYP3A4(BFC) is above 10 µM.
Consider `CNc1ncnc2[nH]cc(C(=O)c3ccc(NC4CCCCC4)nc3Cl)c12` [Compound P-4110, [2-chloro-6-(cyclohexylamino)-3-pyridyl]-[4-(methylamino)-7H-pyrrolo[2,3-d]pyrimidin-5-yl]methanone], for which, in data set [1], the “turbidity threshold (L, M, H) 1.4” value is listed as “M (moderate solubility if the threshold concentration is 31.3 μM to 250 μM)”; the “turbidity threshold (L, M, H) 4.5” value is “L (low solubility if the threshold concentration is <31.3 μM)”; the “turbidity threshold (L, M, H) 6.8” value is on record as “L (low solubility if the threshold concentration is <31.3 μM)”; the “turbidity threshold (L, M, H) 7.4” value was “L (low solubility if the threshold concentration is <31.3 μM)”. Moreover, the IC50 on CYP3A4(BFC) is above 10 µM.
